Experimental data taken from patent US7371780B2, “Use of calphostin C to treat drug-resistant tumor cells” (priority 2003, dated 2008).

Experiments:
MCF-7DOX cells [1] = test: Microscopic cell morphology, MCF-7DOX; format: cell-based, human; conditions: 2 μM doxorubicin, 24 h
Description: (§1) For microscopic observation, cells were seeded onto standard glass coverslips in 10 cm tissue culture plates with 10 ml of H21 medium and grown for 2 days until 40-50% confluence was obtained. After treatment with paclitaxel, doxorubicin or calphostin C, the cells on the glass coverslips were washed twice with PBS (2.7 mM KCl, 1.0 mM KH2PO4, 137 mM NaCl, 10 mM Na2HPO4, pH 7.4) and stained with acridine orange/ethidium bromide (each at 4 μg/ml in PBS) for 10 min at 37° C.. The coverslips were then washed three times in PBS and mounted onto standard glass slides for morphological evaluation. For propidium iodide (PI) staining, the cells on coverslips were washed twice with PBS and fixed in methanol (cooled to −20° C.) for 20 min. Thirty μl of propidium iodide (PI) staining solution (100 μg/ml PI, 0.1% sodium citrate, 100 μg/ml RNase A and 0.3% Nonidet P-40) were then applied to the coverslips for 5 min. […] The cells were then examined using a Zeiss Axiovert 100 inverted fluorescence microscope. […] For each sample, the number of dead cells was determined by visualization after ethidium bromide staining, whereby only dead cells which have lost membrane integrity allow entry of cell-impermeable ethidium bromide into cells to complex with DNA and induce bright red fluorescence. […] The images were recorded and overlayed using Northern Eclipse software (Empix Imaging Inc., Mississauga, ON).

MCF-7TAX cells [2] = test: Drug uptake, MCF-7TAX; format: cell-based, human; conditions: 2 μM doxorubicin or [3H]-paclitaxel
Description: (§2) FIG. 5 illustrates the effect of calphostin C (Cal-C) on drug uptake in MCF-7 (square symbols), MCF-7TAX (diamond symbols) and MCF-7DOX (triangular symbols) cells. After one-day growth, the cells were left untreated (closed symbols) or treated with 100 nM calphostin C for 2 h with light activation (open symbols). Cells were then washed and the medium replaced with medium containing 2 μM of doxorubicin (A) or [^3H]-paclitaxel (B). The cells were then trypsinized and drug accumulation measured by flow cytometry (A) or liquid scintillation counting (B) at indicated time points. The figures are representative of three independent experiments.

[3] = test system: MCF-7DOX (doxorubicin-resistant) cells; test: Clonogenic assay, MCF-7DOX cells; format: cell-based, human; conditions: for fold resistance / lower sensitivity compared to MCF-7 cells: MCF-7DOX vs MCF-7
Description: (§3) The breast cancer cell line MCF-7 (lot HTB-22) was obtained from the American […] (ATCC) and maintained in Dulbecco's H21 medium (MEM) supplemented with 10% Fetal Bovine Serum (FBS) (HyClone, Logan, Utah) in a humidified atmosphere containing 5% CO2 at 37° C. To establish drug resistant cell lines, MCF-7 cells were grown in the presence of either paclitaxel or doxorubicin, beginning at a concentration 1000-fold below that required to kill 50% of the cells (the IC50). The drug concentration was increased 3-fold every two weeks (two passages), with an aliquot of the cells removed for storage in liquid nitrogen before each increase in concentration. Dose escalation continued until all cells died, after which the cells able to tolerate the highest concentration of drug were thawed for subsequent study. In this way, paclitaxel-resistant (MCF-7TAX) and doxorubicin-resistant (MCF-7DOX) cell lines were established. The IC50 for each drug was determined using a clonogenic assay as outlined below. The drug resistant cells were kept in culture in the presence of the maximally tolerated drug dose. Before each experiment, the cell lines were grown for two days in the absence of drug after which fresh medium containing either calphostin C (Sigma Laboratories, Oakville, ON), doxorubicin (Adriamycin PFS®, USP, Mississauga, ON) or paclitaxel (Taxol, Bristol-Myers Squibb, Montreal, QC) was added at the concentrations indicated.
The sensitivity of MCF-7, MCF-7TAX and MCF-7DOX cells to calphostin C, paclitaxel or doxorubicin was determined using a clonogenic assay. Briefly, 2.5×10^5 cells were seeded into 25 cm^2 tissue culture flasks in Dulbecco's H21 medium supplemented with 10% FBS. The cells were allowed to grow overnight, after which the medium was removed and replaced with medium containing varying concentrations of paclitaxel, doxorubicin, or calphostin C (after 2 hours of light exposure to activate the molecule). After 24 hours, the medium (including any floating cells) was transferred to 14 ml screw-capped tubes and centrifuged at 1000 rpm for 10 min. The adherent cells were then released from their flasks by trypsin treatment and suspended in 10 ml of H21 medium. The cell suspension was transferred to the previous tube and all cells harvested by centrifugation. The cell pellet was washed one more time with drug-free medium and resuspended in 300 μl of normal growth medium containing FBS. The cells were then added to 2.7 ml of a methylcellulose solution. The methylcellulose medium was prepared by combining 70 ml of a 2.6% (w/v) methylcellulose solution [Shin-Etsu Chemical Co., Tokyo, Japan] in Iscove's medium (Princess Margaret Hospital, Toronto, ON) with 30 ml of FBS. Three ml syringes equipped with a 16-gauge needle were used for transferring the viscous medium. The mixture was vigorously vortexed for 10 s to ensure an even distribution of cells within the viscous medium. The vortexed samples were then allowed to sit for 30 min to remove air bubbles. A 1.2 ml aliquot of the cell suspension was then transferred to a 6-well plate and the cells allowed to grow until colonies of >50 cells were visible by light microscopy for the various cell lines in the absence of drug. The colonies present in 5 randomly selected fields were then counted by visual inspection.
Calphostin C (Sigma Laboratories, Oakville, ON) was prepared as a 100 μM stock solution in dimethylsulfoxide (Sigma Laboratories, Oakville, ON) and stored at −70° C. in 100 μl aliquots. […]

MCF-7DOX cells [4] = test: Drug uptake, MCF-7DOX; format: cell-based, human; conditions: 2 μM doxorubicin or [3H]-paclitaxel
Description: as §2

MCF-7 cells [5] = test: Clonogenic assay, MCF-7 cells; format: cell-based, human; conditions: Homo sapiens, MCF7, 24 h drug, calphostin C light-activated 2 h, read-out: IC50 (concentration required to kill or inhibit the growth of 50% of cells)
Description: as §3
(§4) The sensitivity of MCF-7, MCF-7TAX and MCF-7DOX cells to calphostin C, paclitaxel or doxorubicin was determined using a clonogenic assay. Briefly, 2.5×10^5 cells were seeded into 25 cm^2 tissue culture flasks in Dulbecco's H21 medium supplemented with 10% FBS. The cells were allowed to grow overnight, after which the medium was removed and replaced with medium containing varying concentrations of paclitaxel, doxorubicin, or calphostin C (after 2 hours of light exposure to activate the molecule). […] The colonies present in 5 randomly selected fields were then counted by visual inspection. […]

MCF-7 cells [6] = test: Flow cytometric sub-G1 DNA content, MCF-7; format: cell-based, human; conditions: 10 nM paclitaxel or 2 μM doxorubicin
Description: For flow cytometric analysis, cells at about 50% to 60% confluence were released from their flasks by trypsin treatment and washed with PBS. After centrifugation at 1000 rpm for 5 min, cells were then fixed by resuspension in 75% ethanol for 2 hours, collected by centrifugation, and resuspended in PI staining solution (see above) for 1 h. For each sample, approximately 2×10^4 cells were analyzed using a Beckman Coulter Epics® Elite flow cytometer. Fluorescence intensity upon stimulation with an argon-ion laser at 488 nm was measured using the PMT4 channel (625DL filter) and plotted against cell number. The percentage of cells with a sub-G1 DNA content was determined by the flow cytometer, adjusting the gates such that only cells with a fluorescence lower than the peak for untreated cells in G1 are counted (see FIG. 4).

[7] = test system: MCF-7TAX (paclitaxel-resistant) cells; test: Clonogenic assay, MCF-7TAX cells; format: cell-based, human
Description: as §3, §4

MCF-7 cells [8] = test: Microscopic cell morphology (bright field, AO/EB, PI), MCF-7; format: cell-based, human; conditions: 10 nM paclitaxel, 24 hours, PI staining
Description: as §1

MCF-7TAX cells [9] = test: Microscopic cell morphology, MCF-7TAX; format: cell-based, human; conditions: 10 nM paclitaxel, 24 h
Description: as §1

[10] = test system: caspase-8 and PARP in Jurkat cells; test: Immunoblotting of apoptosis markers, Jurkat (positive control); format: cell-based; conditions: 3 μg/ml etoposide, 24 hours
Description: FIG. 9 illustrates the effect of calphostin C on caspase 8 cleavage, PARP cleavage, and cytochrome C release in MCF-7, MCF-7FDOX, and MCF-7TAX cells. The MCF-7, MCF-7FDOX, and MCF-7TAX cell lines were incubated with (+) or without (−) 100 nM calphostin C, after which whole cell extracts were monitored for caspase-8 and cytochrome C levels by immunoblotting as described in Materials and Methods. A similar experiment was also performed, except that mitochondrial (M) and cytosolic (C) fractions were prepared as described in Materials and Methods to monitor by immunoblotting the release of cytochrome C from mitochondria into the cytosol in response to calphostin C. As positive controls, similar experiments were conducted using Jurkat cells, with (+) or without (−) the addition of 3 μg/ml etoposide for 24 hours.
Extraction of proteins from whole cells was performed using RIPA buffer (1% NP40, 0.5% sodium deoxycholate, 0.1% SDS, 1 Complete™ protease inhibitor tablet in 50 ml of PBS). Prior to use, the RIPA buffer (50 ml) was supplemented with 500 μl each of both 100 mM sodium orthovanadate and 10 mg/ml phenylmethylsulfonyl fluoride. Cultured cells were grown as a monolayer and allowed to reach 70-90% confluence in 10 cm tissue culture plates. […]

COc1cccc2c1C(=O)c1c(O)c3c(c(O)c1C2=O)C[C@@](O)(C(=O)CO)C[C@@H]3O[C@H]1C[C@H](N)[C@H](O)[C@H](C)O1 [doxorubicin]
change in morphology over untreated cells (MCF-7DOX cells [1]): no change in morphology
drug uptake compared to MCF-7 cells (MCF-7TAX cells [2]): dramatically lower
IC50 ([3]; Homo sapiens, MCF7-DOX, MCF-7DOX cells, 24 h drug, calphostin C light-activated 2 h): 0.6 µM
fold resistance / lower sensitivity compared to MCF-7 cells [3]: 60 fold
drug uptake compared to MCF-7 cells (MCF-7DOX cells [4]): dramatically lower
IC50 (MCF-7 cells [5]): 0.01 µM
time of large increase in number of cells with sub-G1 DNA content after drug administration (MCF-7 cells [6]): approximately 24 hours

CC(=O)O[C@H]1C(=O)[C@@]2(C)[C@H]([C@H](OC(=O)c3ccccc3)[C@]3(O)C[C@H](OC(=O)[C@H](O)[C@@H](NC(=O)c4ccccc4)c4ccccc4)C(C)=C1C3(C)C)[C@]1(OC(C)=O)CO[C@@H]1C[C@@H]2O [paclitaxel]
drug uptake compared to MCF-7 cells (MCF-7TAX cells [2]): dramatically lower
IC50 ([7]; Homo sapiens, MCF-7TAX cells, 24 h drug, calphostin C light-activated 2 h): 0.027 µM
fold higher IC50 than for MCF-7 cells ([7]; MCF-7TAX vs MCF-7): 54 fold
fold resistance / lower sensitivity compared to MCF-7 cells [3]: approximately 4000 fold
percentage of adherent cells multinucleated (MCF-7 cells [8]): over 60%
drug uptake compared to MCF-7 cells (MCF-7DOX cells [4]): dramatically lower
IC50 (MCF-7 cells [5]): 0.0005 µM
change in morphology over untreated cells (MCF-7TAX cells [9]): no change in morphology
time of large increase in number of cells with sub-G1 DNA content after drug administration (MCF-7 cells [6]): approximately 24 hours

COc1cc([C@@H]2c3cc4c(cc3[C@@H](O[C@@H]3O[C@@H]5CO[C@@H](C)O[C@H]5[C@H](O)[C@H]3O)[C@H]3COC(=O)[C@H]23)OCO4)cc(OC)c1O [etoposide]
caspase-8 and PARP cleavage [10]: could induce caspase-8 and PARP cleavage
